Measured values as given in US20140155384A1, “COMPOUNDS AND METHODS OF TREATING DIABETES” (Medivation Technologies, Inc., priority 2011, published 2014).

Key:
[1] = molecular target: T1, rat adrenergic α1B receptor (Rattus norvegicus, UniProt P15823); test: Radioligand binding, adrenergic α1B receptor ([3H]Prazosin); settings: 0.1 μM compound, Wistar rat liver, read-out: Percentage inhibition of ligand binding, Adrenergic α1B
T1 construct: rat adrenergic α1B receptor obtained from Wistar Rat liver; from tissue; host or cells: Wistar rat liver
T1 sequence (P15823 1-515): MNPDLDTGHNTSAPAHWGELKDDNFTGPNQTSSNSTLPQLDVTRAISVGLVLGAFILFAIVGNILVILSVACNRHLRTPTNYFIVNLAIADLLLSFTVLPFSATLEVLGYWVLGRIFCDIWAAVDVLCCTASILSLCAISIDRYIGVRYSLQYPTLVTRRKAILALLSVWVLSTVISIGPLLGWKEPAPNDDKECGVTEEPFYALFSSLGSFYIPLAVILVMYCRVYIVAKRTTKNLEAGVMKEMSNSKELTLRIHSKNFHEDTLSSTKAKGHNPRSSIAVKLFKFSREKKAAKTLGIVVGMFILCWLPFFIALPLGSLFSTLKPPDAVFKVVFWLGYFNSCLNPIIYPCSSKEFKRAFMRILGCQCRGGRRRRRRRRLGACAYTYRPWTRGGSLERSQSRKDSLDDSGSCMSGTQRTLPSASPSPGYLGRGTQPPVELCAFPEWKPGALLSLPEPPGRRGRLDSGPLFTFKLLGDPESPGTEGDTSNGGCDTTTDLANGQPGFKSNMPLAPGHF
Procedure, shortened: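 Wistar rat liver α1B receptor preparation incubated with 0.25 nM [3H]prazosin and compound for 60 min at 25° C in 50 mM Tris-HCl pH 7.4, 0.5 mM EDTA; nonspecific binding defined with 10 μM phentolamine.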

[2] = molecular target: T2, human recombinant adrenergic α2B receptor (Homo sapiens, UniProt P18089); test: Radioligand binding, adrenergic α2B receptor ([3H]Rauwolscine); settings: 0.1 μM compound, CHO-K1 cells, read-out: Percentage inhibition of ligand binding, Adrenergic α2B
T2 construct: expressed in transfected cells; host or cells: CHO-K1
T2 sequence (P18089 1-450): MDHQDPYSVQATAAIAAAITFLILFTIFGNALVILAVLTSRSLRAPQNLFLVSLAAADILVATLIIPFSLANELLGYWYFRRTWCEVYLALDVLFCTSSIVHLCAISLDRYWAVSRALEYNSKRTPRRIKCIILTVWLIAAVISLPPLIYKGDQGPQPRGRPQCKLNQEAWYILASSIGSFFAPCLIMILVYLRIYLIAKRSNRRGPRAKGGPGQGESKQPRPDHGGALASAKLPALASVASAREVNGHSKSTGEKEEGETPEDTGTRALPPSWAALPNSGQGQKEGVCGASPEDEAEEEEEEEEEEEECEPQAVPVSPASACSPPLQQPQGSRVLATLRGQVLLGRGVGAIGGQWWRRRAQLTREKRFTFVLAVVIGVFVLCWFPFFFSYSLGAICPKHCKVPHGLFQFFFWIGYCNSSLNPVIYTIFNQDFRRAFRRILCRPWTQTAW
Procedure, shortened: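 Percent inhibition of specific [3H]Rauwolscine (2.5 nM) binding, compounds at ≤1 μM, 1% DMSO vehicle, 10 μM prazosin defining nonspecific. Receptor: human α2B expressed in CHO-K1 cells, 60 min incubation at 25 °C in Tris-HCl pH 7.4 buffer (MgCl2, EDTA, BSA); filtered, washed, counted.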

[3] = molecular target: T3, human recombinant adrenergic α2A receptor (Homo sapiens, UniProt P08913); test: Radioligand binding, adrenergic α2A receptor ([3H]MK-912); settings: 0.1 μM compound; Sf9 cells; 1 nM [3H]MK-912; read-out: Percentage inhibition of ligand binding, Adrenergic α2A
T3 construct: expressed in transfected cells; host or cells: insect Sf9 cells
T3 sequence (P08913 1-465): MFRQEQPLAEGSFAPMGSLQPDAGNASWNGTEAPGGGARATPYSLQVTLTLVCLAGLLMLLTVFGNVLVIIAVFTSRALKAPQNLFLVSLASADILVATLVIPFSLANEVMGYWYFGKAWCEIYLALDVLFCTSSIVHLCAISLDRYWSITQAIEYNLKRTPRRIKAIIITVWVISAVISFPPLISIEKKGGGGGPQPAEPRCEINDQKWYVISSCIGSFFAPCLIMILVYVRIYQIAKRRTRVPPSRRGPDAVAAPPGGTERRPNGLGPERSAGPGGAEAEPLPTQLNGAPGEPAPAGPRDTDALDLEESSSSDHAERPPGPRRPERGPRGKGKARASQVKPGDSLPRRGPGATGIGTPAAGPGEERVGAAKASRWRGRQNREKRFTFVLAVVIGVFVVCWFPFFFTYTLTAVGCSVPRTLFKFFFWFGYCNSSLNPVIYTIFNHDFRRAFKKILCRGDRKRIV
Procedure, shortened: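 Percent inhibition of specific [3H]MK-912 (1 nM) binding measured by filtration counting, compounds tested at ≤1 μM in 1% DMSO. Receptor: human α2A from Sf9 cells; incubation 60 min, 25 °C, pH 7.4; 10 μM WB-4101 defined nonspecific binding.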

[4] = molecular target: T4, human recombinant adrenergic α1D receptor (Homo sapiens, UniProt P25100); test: Radioligand binding, adrenergic α1D receptor ([3H]Prazosin); settings: 0.1 μM compound; HEK-293 cells; 0.6 nM [3H]Prazosin; read-out: Percentage inhibition of ligand binding, Adrenergic α1D
T4 construct: expressed in transfected cells; host or cells: HEK-293
T4 sequence (P25100 1-572): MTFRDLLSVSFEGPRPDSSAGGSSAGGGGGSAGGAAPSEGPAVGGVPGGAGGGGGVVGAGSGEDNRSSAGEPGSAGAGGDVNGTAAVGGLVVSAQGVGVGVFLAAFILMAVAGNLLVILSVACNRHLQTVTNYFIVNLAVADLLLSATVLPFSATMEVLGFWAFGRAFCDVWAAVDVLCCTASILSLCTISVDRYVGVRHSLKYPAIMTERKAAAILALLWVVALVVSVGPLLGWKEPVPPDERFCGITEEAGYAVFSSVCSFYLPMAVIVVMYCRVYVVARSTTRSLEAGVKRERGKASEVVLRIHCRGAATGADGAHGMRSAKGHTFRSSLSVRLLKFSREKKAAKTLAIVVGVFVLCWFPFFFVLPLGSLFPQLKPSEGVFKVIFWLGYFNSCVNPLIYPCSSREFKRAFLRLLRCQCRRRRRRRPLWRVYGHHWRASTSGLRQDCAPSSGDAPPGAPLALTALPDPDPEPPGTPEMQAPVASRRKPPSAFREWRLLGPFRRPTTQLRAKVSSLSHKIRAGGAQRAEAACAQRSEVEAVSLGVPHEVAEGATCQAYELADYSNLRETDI
Procedure: Compounds were incubated with 0.6 nM [3H]Prazosin for 60 min at 25° C. Non-specific binding was estimated in the presence of 10 μM phentolamine. Receptor proteins were filtered and washed, the filters were then counted to determine [3H]Prazosin specifically bound. Compounds were screened at 1 μM or lower, using 1% DMSO as vehicle. Biochemical assay results are presented as the percent inhibition of specific binding in Table 2.

Compound	inhibition at 0.1 µM [1] [%]	inhibition at 0.1 µM [2] [%]	inhibition at 0.1 µM [3] [%]	inhibition at 0.1 µM [4] [%]
Cc1ccc2c(c1)c1c(n2-c2cscc2-c2cc3ccccc3s2)CCN(C)C1 [Compound No. 151]	59	99	96	67
Cc1ccc2c(c1)c1c(n2-c2cscc2C(=O)N(C)C)CCN(C)C1 [Compound No. 152]	10	51	9	16
Cc1ccc2c(c1)c1c(n2-c2ccc(-c3ccc(C)nc3)cn2)CCN(C)C1 [Compound No. 156, 2,8-dimethyl-5-(6′-methyl-3,3′-bipyridin-6-yl)-2,3,4,5-tetrahydro-1H-pyrido[4,3-b]indole]	78	78	40	69
Cc1ccc2c(c1)c1c(n2-c2ccc3nc(C)ccc3c2)CCN(C)C1 [Compound No. 157, 2,8-dimethyl-5-(2-methyl-quinolin-6-yl)-2,3,4,5-tetrahydro-1H-pyrido[4,3-b]indole]	22	60	8	13
Cc1ccc2c(c1)c1c(n2-c2cccc(-c3ccc(S(N)(=O)=O)cc3)c2)CCN(C)C1 [Compound No. 158, 3′-(2,8-dimethyl-3,4-dihydro-1H-pyrido[4,3-b]indol-5(2H)-yl)biphenyl-4-sulfonamide]	7	60	73	14

More lines, now with the values ahead:

inhibition at 0.1 µM [1] [%]	inhibition at 0.1 µM [2] [%]	inhibition at 0.1 µM [3] [%]	inhibition at 0.1 µM [4] [%]	Compound
72	77	55	73	Cc1ccc2c(c1)c1c(n2-c2cscc2-c2ccnn2C)CCN(C)C1 [Compound No. 150]
46	42	20	70	CNC(=O)c1cccc(-c2cscc2-n2c3c(c4cc(C)ccc42)CN(C)CC3)c1 [Compound No. 154]
43	74	9	63	CNC(=O)c1ccc(-c2cscc2-n2c3c(c4cc(C)ccc42)CN(C)CC3)cc1 [Compound No. 155]
